Details: Liquid, Vibrating tube method

CCCC(=O)OCC(COC(=O)CCC)(COC(=O)CCC)COC(=O)CCC [pentaerythritol tetrabutyrate]
Details	mass density [kg/m3]
303.16 K, 34848 kPa	1063.1
303.17 K, 281.6 kPa	1042.3
303.17 K, 295.5 kPa	1042.4
303.17 K, 308.6 kPa	1042.3
303.17 K, 338.6 kPa	1042.4
303.17 K, 356.5 kPa	1042.4
303.17 K, 372.3 kPa	1042.3
303.17 K, 389.7 kPa	1042.4
303.17 K, 409.5 kPa	1042.4
303.17 K, 424.5 kPa	1042.4
303.17 K, 439.6 kPa	1042.5
303.17 K, 457.1 kPa	1042.5
303.17 K, 488.2 kPa	1042.3
303.17 K, 509.3 kPa	1042.5
303.17 K, 526.8 kPa	1042.6
303.17 K, 1268.4 kPa	1043
303.17 K, 1312 kPa	1043
303.17 K, 1333.8 kPa	1043
303.17 K, 2851.4 kPa	1044.1
303.17 K, 2920.2 kPa	1044.1
303.17 K, 4808.4 kPa	1045.3
303.17 K, 4819 kPa	1045.4
303.17 K, 4825.7 kPa	1045.3
303.17 K, 4829.2 kPa	1045.3
303.17 K, 4830.8 kPa	1045.2
303.17 K, 4832.3 kPa	1045.3
303.17 K, 4834.4 kPa	1045.4
303.17 K, 4836 kPa	1045.4
303.17 K, 4837.7 kPa	1045.4
303.17 K, 4839.2 kPa	1045.4
303.17 K, 4840.6 kPa	1045.4
303.17 K, 4842.7 kPa	1045.3
303.17 K, 6518.3 kPa	1046.5
303.17 K, 6547.8 kPa	1046.4
303.17 K, 6572.5 kPa	1046.5
303.17 K, 7027.7 kPa	1046.8
303.17 K, 7057 kPa	1046.7
303.17 K, 7087.6 kPa	1046.8
303.17 K, 7117.6 kPa	1046.7
303.17 K, 7147.4 kPa	1046.8
303.17 K, 7177.7 kPa	1046.9
303.17 K, 7213.5 kPa	1046.9
303.17 K, 7243.4 kPa	1046.9
303.17 K, 8394.2 kPa	1047.6
303.17 K, 8419.6 kPa	1047.7
303.17 K, 8440.8 kPa	1047.7
303.17 K, 8462 kPa	1047.7
303.17 K, 8485.6 kPa	1047.7
303.17 K, 9218.9 kPa	1048
303.17 K, 34670 kPa	1063
303.17 K, 34730 kPa	1063.1
303.17 K, 34780 kPa	1063.1
303.17 K, 34833 kPa	1063.2
323.14 K, 3021.5 kPa	1026.7
323.14 K, 3045.8 kPa	1026.8
323.14 K, 3074.9 kPa	1026.9
323.14 K, 3099.4 kPa	1026.9
323.14 K, 3124.1 kPa	1027
323.14 K, 3153.6 kPa	1026.9
323.14 K, 3179.3 kPa	1026.9
323.14 K, 3204.7 kPa	1027
323.14 K, 3230.2 kPa	1027
323.14 K, 3262.8 kPa	1027.1
323.14 K, 3289.7 kPa	1027
323.14 K, 3316.7 kPa	1027.2
323.14 K, 3376.7 kPa	1027.2
323.14 K, 3404.8 kPa	1027.3
323.14 K, 3432.9 kPa	1027.2
323.14 K, 3526.4 kPa	1027.4
323.14 K, 3592.6 kPa	1027.3
323.14 K, 3622.8 kPa	1027.3
323.14 K, 3654 kPa	1027.4
323.14 K, 3691.9 kPa	1027.4
323.14 K, 3723.3 kPa	1027.5
323.14 K, 3755.5 kPa	1027.4
323.14 K, 3794.3 kPa	1027.5
323.14 K, 3827.2 kPa	1027.5
323.14 K, 3860.3 kPa	1027.6
323.14 K, 3900.3 kPa	1027.7
323.14 K, 3935 kPa	1027.6
323.14 K, 3969.1 kPa	1027.6
323.14 K, 4004.6 kPa	1027.7
323.14 K, 4047.6 kPa	1027.8
323.14 K, 4083.9 kPa	1027.7
323.14 K, 4121.4 kPa	1027.7
323.14 K, 4159.5 kPa	1027.8
323.14 K, 4204 kPa	1027.8
323.14 K, 4241.5 kPa	1027.9
323.14 K, 4280.5 kPa	1028
323.14 K, 4319.3 kPa	1027.9
323.14 K, 4366.4 kPa	1028
323.14 K, 4406.1 kPa	1028
323.14 K, 4447.6 kPa	1028.1
323.14 K, 4495.9 kPa	1028
323.14 K, 4536.6 kPa	1028.2
323.14 K, 4587.3 kPa	1028.3
323.14 K, 4629.9 kPa	1028.2
323.14 K, 4673.5 kPa	1028.3
323.14 K, 4708.8 kPa	1028.3
323.14 K, 4783.8 kPa	1028.3
323.14 K, 4863.6 kPa	1028.4
323.14 K, 4981.8 kPa	1028.4
323.14 K, 5097.9 kPa	1028.7
323.14 K, 5295.3 kPa	1028.8
323.14 K, 5295.4 kPa	1028.7
323.14 K, 5295.6 kPa	1028.8
323.14 K, 5487.4 kPa	1028.9
323.14 K, 5504.7 kPa	1029
323.14 K, 5543.7 kPa	1028.9
323.14 K, 12307 kPa	1033.8
323.14 K, 12337 kPa	1033.7
323.14 K, 14077 kPa	1034.9
323.14 K, 14107 kPa	1034.9
323.14 K, 14132 kPa	1034.8
323.14 K, 14159 kPa	1034.9
323.14 K, 14184 kPa	1035
323.14 K, 14777 kPa	1035.3
323.14 K, 16272 kPa	1036.3
323.14 K, 16347 kPa	1036.3
323.14 K, 16415 kPa	1036.4
323.14 K, 16456 kPa	1036.4
323.14 K, 16491 kPa	1036.5
323.14 K, 16525 kPa	1036.4
323.14 K, 16567 kPa	1036.5
323.14 K, 16603 kPa	1036.5
323.14 K, 16638 kPa	1036.5
323.14 K, 16681 kPa	1036.6
323.14 K, 16716 kPa	1036.5
323.14 K, 16912 kPa	1036.7
323.14 K, 16948 kPa	1036.8
323.14 K, 16993 kPa	1036.8
323.14 K, 17030 kPa	1036.8
323.14 K, 17069 kPa	1036.8
323.14 K, 17108 kPa	1036.7
323.14 K, 17153 kPa	1036.9
323.14 K, 17191 kPa	1037
323.14 K, 17229 kPa	1036.9
323.14 K, 17267 kPa	1036.9
323.14 K, 17315 kPa	1036.9
323.14 K, 17354 kPa	1036.9
323.14 K, 17394 kPa	1037
323.14 K, 17441 kPa	1037.1
323.14 K, 17476 kPa	1037
323.14 K, 17519 kPa	1037.1
323.14 K, 17554 kPa	1037.2
323.14 K, 17593 kPa	1037
323.14 K, 17628 kPa	1037.1
